Reference: patent US20250059174A1, “Pharmaceutical Compounds and Compositions as C-Kit Kinase Inhibitors” (Enanta Pharmaceuticals, Inc., priority 2023, published 2025)

Tests used:
[1] = molecular target: Recombinant human c-KIT kinase (Homo sapiens (Human), UniProt P10721); experiment: c-KIT kinase chemiluminescence assay (ADP-Glo); format: biochemical; settings: ATP 50 μM
Outline: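 Recombinant human c-KIT preincubated 30 min at RT in 40 mM Tris pH 7.5, 20 mM MgCl2, 0.1 mg/mL BSA, 50 μM DTT, then reacted 2 h at RT with ATP and polyEY substrate. ADP-Glo luminescence readout; activity normalized to high/low controls, IC50 and Hill coefficient from inhibitor-versus-normalized-response fit.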

[2] = test system: M-07e cells; experiment: M-07e cellular assay (SCF-mediated cell proliferation); format: cell-based; settings: Homo sapiens, 72 hours, CellTiter Glo
Outline: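 Readout came from CellTiter Glo after 72 h of compound treatment in SCF (EC90)-stimulated, pre-starved M-07e cells at 37 °C.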

Chain of Recombinant human c-KIT kinase (P10721 26-976): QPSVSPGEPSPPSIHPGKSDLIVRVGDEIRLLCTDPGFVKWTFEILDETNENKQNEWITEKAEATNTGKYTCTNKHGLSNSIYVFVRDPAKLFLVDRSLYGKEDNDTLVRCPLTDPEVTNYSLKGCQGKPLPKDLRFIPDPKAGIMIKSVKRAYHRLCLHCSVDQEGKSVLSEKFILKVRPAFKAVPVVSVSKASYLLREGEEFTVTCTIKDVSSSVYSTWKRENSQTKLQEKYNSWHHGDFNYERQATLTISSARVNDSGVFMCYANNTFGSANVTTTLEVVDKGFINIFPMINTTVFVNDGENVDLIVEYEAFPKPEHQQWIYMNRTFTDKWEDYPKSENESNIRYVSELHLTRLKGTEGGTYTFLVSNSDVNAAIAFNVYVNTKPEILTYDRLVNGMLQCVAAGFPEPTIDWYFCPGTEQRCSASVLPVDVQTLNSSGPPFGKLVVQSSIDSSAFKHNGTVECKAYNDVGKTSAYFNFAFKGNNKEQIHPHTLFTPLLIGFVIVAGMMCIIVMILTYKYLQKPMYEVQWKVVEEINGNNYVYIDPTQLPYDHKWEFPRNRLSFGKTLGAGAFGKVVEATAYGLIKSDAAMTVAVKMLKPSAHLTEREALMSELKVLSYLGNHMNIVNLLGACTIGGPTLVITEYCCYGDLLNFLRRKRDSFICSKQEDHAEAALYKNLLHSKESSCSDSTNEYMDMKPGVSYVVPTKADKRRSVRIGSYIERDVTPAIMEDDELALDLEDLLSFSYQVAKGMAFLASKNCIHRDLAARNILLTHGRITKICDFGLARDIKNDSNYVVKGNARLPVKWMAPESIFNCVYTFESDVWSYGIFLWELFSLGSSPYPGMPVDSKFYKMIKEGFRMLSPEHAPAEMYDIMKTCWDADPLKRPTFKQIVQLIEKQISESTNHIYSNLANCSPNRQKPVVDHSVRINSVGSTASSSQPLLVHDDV

`Cc1ccc(-c2noc([C@H]3C[C@@H]3F)n2)cc1NC(=O)c1cnn2ccc(N3C[C@@H](F)[C@@H]3C)cc12` [Example 224] was tested, and the IC50 [1] was under 0.1 µM and the EC50 [2] was under 0.1 µM.
For `Cc1ccc(-c2noc([C@H]3C[C@@H]3F)n2)cc1NC(=O)c1cnn2ccc(N3CC(C(F)(F)F)C3)cc12` [Example 225], the IC50 [1] was under 0.1 µM and the EC50 [2] was 0.1 to 1 µM.
`COC1(OC)CC2(CN(c3ccn4ncc(C(=O)Nc5cc(-c6noc([C@H]7C[C@@H]7F)n6)ccc5C)c4c3)C2)C1` [Example 226] gave an IC50 [1] of under 0.1 µM and an EC50 [2] of under 0.1 µM.
`Cc1ccc(-c2noc([C@H]3C[C@@H]3F)n2)cc1NC(=O)c1cnn2ccc(N3CC4(CCC4)C3)cc12` [Example 227] gave an IC50 [1] of under 0.1 µM and an EC50 [2] of 0.1 to 1 µM.
`Cc1ccc(-c2noc([C@H]3C[C@@H]3F)n2)cc1NC(=O)c1cnn2ccc(N3CC4CC3C4(C)C)cc12` (stereo partly shown) [Example 228] gave an IC50 [1] of under 0.1 µM and an EC50 [2] of 0.1 to 1 µM.
In the case of `Cc1ccc(-c2noc([C@H]3C[C@@H]3F)n2)cc1NC(=O)c1cnn2ccc(N3CCN(CC(F)(F)F)[C@H](C)C3)cc12` [Example 230], the IC50 [1] is reported as under 0.1 µM and the EC50 [2] is reported as under 0.1 µM.
`Cc1ccc(-c2noc([C@H]3C[C@@H]3F)n2)cc1NC(=O)c1cnn2ccc(N3CC4(CC(=O)C4)C3)cc12` [Example 231] showed an IC50 [1] of under 0.1 µM and an EC50 [2] of under 0.1 µM.
`Cc1ccc(-c2noc([C@H]3C[C@@H]3F)n2)cc1NC(=O)c1cnn2ccc(N3CC4(C3)CC(O)(C(F)F)C4)cc12` [Example 232] gave an IC50 [1] of under 0.1 µM and an EC50 [2] of under 0.1 µM.
`Cc1ccc(-c2noc([C@H]3C[C@@H]3F)n2)cc1NC(=O)c1cnn2ccc(N3CC4(C3)CC(O)(C(F)(F)F)C4)cc12` [Example 233] gave an IC50 [1] of under 0.1 µM and an EC50 [2] of under 0.1 µM.
`CC(=O)N1CCN(c2ccn3ncc(C(=O)Nc4cc(-c5noc([C@H]6C[C@@H]6F)n5)ccc4C)c3c2)C[C@H]1C` [Example 234] was tested, and the IC50 [1] was under 0.1 µM and the EC50 [2] was under 0.1 µM.
`Cc1ccc(-c2noc([C@H]3C[C@@H]3F)n2)cc1NC(=O)c1cnn2ccc(N3CC4(CCN4C(=O)OC(C)(C)C)C3)cc12` [Example 235] showed an IC50 [1] of over 1 µM and an EC50 [2] of over 1 µM.
`Cc1ccc(-c2noc([C@H]3C[C@@H]3F)n2)cc1NC(=O)c1cnn2ccc(-n3cc(NC(=O)OC(C)(C)C)cn3)cc12` [Example 236] was tested, and the IC50 [1] was 0.1 to 1 µM and the EC50 [2] was 0.1 to 1 µM.
In the case of `Cc1ccc(-c2noc([C@H]3C[C@@H]3F)n2)cc1NC(=O)c1cnn2ccc(-n3cc(N)cn3)cc12` [Example 237], the IC50 [1] is reported as under 0.1 µM and the EC50 [2] is reported as 0.1 to 1 µM.
`Cc1ccc(-c2noc([C@H]3C[C@@H]3F)n2)cc1NC(=O)c1cnn2ccc(Nc3cn[nH]c3)cc12` [Example 238] showed an IC50 [1] of under 0.1 µM and an EC50 [2] of under 0.1 µM.
For `Cc1ccc(-c2noc([C@H]3C[C@@H]3F)n2)cc1NC(=O)c1cnn2ccc(N3CC4(CCN4)C3)cc12` [Example 239], the IC50 [1] was under 0.1 µM and the EC50 [2] was 0.1 to 1 µM.
`CCC1(O)CC2(CN(c3ccn4ncc(C(=O)Nc5cc(-c6noc([C@H]7C[C@@H]7F)n6)ccc5C)c4c3)C2)C1` [Example 240] showed an IC50 [1] of under 0.1 µM and an EC50 [2] of under 0.1 µM.
In the case of `Cc1ccc(-c2noc([C@H]3C[C@@H]3F)n2)cc1NC(=O)c1cnn2ccc(N3CC4(C3)CN(S(C)(=O)=O)C4)cc12` [Example 241-1], the IC50 [1] is reported as under 0.1 µM and the EC50 [2] is reported as under 0.1 µM.
Compound `Cc1ccc(-c2noc([C@H]3C[C@@H]3F)n2)cc1NC(=O)c1cnn2ccc(N3CC4(COC(C)(C)OC4)C3)cc12` [Example 241-2] has an IC50 [1] of under 0.1 µM and an EC50 [2] of over 1 µM.
`Cc1ccc(-c2noc([C@H]3C[C@@H]3F)n2)cc1NC(=O)c1cnn2ccc(N3CC(CO)(CO)C3)cc12` [Example 241-3] was tested, and the IC50 [1] was under 0.1 µM and the EC50 [2] was under 0.1 µM.
With `Cc1ccc(-c2noc([C@H]3C[C@@H]3F)n2)cc1NC(=O)c1cnn2ccc(N3CCN(C(=O)C(F)(F)F)[C@H](C)C3)cc12` [Example 241-4] the IC50 [1] was under 0.1 µM and the EC50 [2] was under 0.1 µM.
For `Cc1ccc(-c2noc([C@H]3C[C@@H]3F)n2)cc1NC(=O)c1cnn2ccc(N3CCN(C(=O)C4CC4)[C@H](C)C3)cc12` [Example 241-5], the IC50 [1] was under 0.1 µM and the EC50 [2] was under 0.1 µM.
In the case of `CC(=O)N1CCN(c2ccn3ncc(C(=O)Nc4cc(-c5noc([C@H]6C[C@@H]6F)n5)ccc4C)c3c2)CC1` [Example 241-6], the IC50 [1] is reported as under 0.1 µM and the EC50 [2] is reported as under 0.1 µM.
For `Cc1ccc(-c2noc([C@H]3C[C@@H]3F)n2)cc1NC(=O)c1cnn2ccc(N3CCN(C(=O)OC(C)(C)C)[C@H](C)C3)cc12` [Example 241-7], the IC50 [1] was 0.1 to 1 µM and the EC50 [2] was under 0.1 µM.
With `Cc1ccc(-c2noc([C@H]3C[C@@H]3F)n2)cc1NC(=O)c1cnn2ccc(NCC3(CO)COC3)cc12` [Example 241-8] the IC50 [1] was under 0.1 µM and the EC50 [2] was under 0.1 µM.
`Cc1ccc(-c2noc([C@H]3C[C@@H]3F)n2)cc1NC(=O)c1cnn2ccc(NCC3(C(=O)OC(C)(C)C)COC3)cc12` [Example 241-9] gave an IC50 [1] of 0.1 to 1 µM and an EC50 [2] of 0.1 to 1 µM.
`Cc1ccc(-c2noc([C@H]3C[C@@H]3F)n2)cc1NC(=O)c1cnn2ccc(N3CC(C(=O)NC4CC4)C3)cc12` [Example 241-10] was tested, and the IC50 [1] was under 0.1 µM and the EC50 [2] was under 0.1 µM.
With `Cc1ccc(-c2noc([C@H]3C[C@@H]3F)n2)cc1NC(=O)c1cnn2ccc(N3CC(C(=O)N4CC(F)(F)C4)C3)cc12` [Example 241-11] the IC50 [1] was under 0.1 µM and the EC50 [2] was under 0.1 µM.
`Cc1ccc(-c2noc([C@H]3C[C@@H]3F)n2)cc1NC(=O)c1cnn2ccc(N3CC4(CN(C(=O)C5CC(F)(F)C5)C4)C3)cc12` [Example 241-12] was tested, and the IC50 [1] was under 0.1 µM and the EC50 [2] was under 0.1 µM.
Work on `Cc1ccc(-c2noc([C@H]3C[C@@H]3F)n2)cc1NC(=O)c1cnn2ccc(N3CC(COCc4ccccc4)(C(=O)OCc4ccccc4)C3)cc12` [Example 241-13] yielded an IC50 [1] of over 1 µM and an EC50 [2] of over 1 µM.
`Cc1ccc(-c2noc([C@H]3C[C@@H]3F)n2)cc1NC(=O)c1cnn2ccc(NCC3(C(=O)O)COC3)cc12` [Example 241-14] gave an IC50 [1] of 0.1 to 1 µM and an EC50 [2] of over 1 µM.
Work on `Cc1ccc(-c2noc([C@H]3C[C@@H]3F)n2)cc1NC(=O)c1cnn2ccc(N3CC4(CN(C(=O)C(F)(F)F)C4)C3)cc12` [Example 241-15] yielded an IC50 [1] of under 0.1 µM and an EC50 [2] of under 0.1 µM.
`Cc1ccc(-c2noc([C@H]3C[C@@H]3F)n2)cc1NC(=O)c1cnn2ccc(N3CC(CO)(C(=O)O)C3)cc12` [Example 241-16] showed an IC50 [1] of 0.1 to 1 µM and an EC50 [2] of over 1 µM.
With `Cc1ccc(-c2noc([C@H]3C[C@@H]3F)n2)cc1NC(=O)c1cnn2ccc(N3CCOCC3)cc12` [Example 241] the IC50 [1] was under 0.1 µM and the EC50 [2] was under 0.1 µM.
Work on `Cc1ccc(-c2noc([C@H]3C[C@@H](OC(F)(F)F)C3)n2)cc1NC(=O)c1cnn2ccc(N3CC4(COC4)C3)cc12` [Example 243] yielded an IC50 [1] of under 0.1 µM and an EC50 [2] of under 0.1 µM.
`Cc1ccc(-c2noc([C@H]3C[C@@H](OC(F)(F)F)C3)n2)cc1NC(=O)c1cnn2ccc(N3CC4(CN(CC(F)(F)F)C4)C3)cc12` [Example 244] was tested, and the IC50 [1] was under 0.1 µM and the EC50 [2] was under 0.1 µM.
`Cc1ccc(-c2noc([C@H]3C[C@H](OC(F)(F)F)C3)n2)cc1NC(=O)c1cnn2ccc(N3CC4(COC4)C3)cc12` [Example 245] gave an IC50 [1] of under 0.1 µM and an EC50 [2] of under 0.1 µM.
Work on `Cc1ccc(-c2noc([C@H]3C[C@@H](OC(C)C)C3)n2)cc1NC(=O)c1cnn2ccc(N3CC4(CN(CC(F)(F)F)C4)C3)cc12` [Example 246] yielded an IC50 [1] of 0.1 to 1 µM and an EC50 [2] of under 0.1 µM.
Compound `Cc1ccc(-c2noc([C@H]3C[C@H](OC(F)F)C3)n2)cc1NC(=O)c1cnn2ccc(N3CC4(COC4)C3)cc12` [Example 247] has an IC50 [1] of under 0.1 µM and an EC50 [2] of under 0.1 µM.
`Cc1ccc(-c2noc([C@H]3C[C@@H](OC(F)F)C3)n2)cc1NC(=O)c1cnn2ccc(N3CC4(CCN(CC(F)F)C4)C3)cc12` [Example 248] was tested, and the IC50 [1] was 0.1 to 1 µM and the EC50 [2] was under 0.1 µM.
Work on `Cc1ccc(-c2noc(C34CC(F)(C3)C4)n2)cc1NC(=O)c1cnn2ccc(N3CC4(COC4)C3)cc12` [Example 249] yielded an IC50 [1] of under 0.1 µM and an EC50 [2] of under 0.1 µM.
For `Cc1ccc(-c2noc([C@H]3C[C@@H](OC(F)F)C3(C)C)n2)cc1NC(=O)c1cnn2ccc(N3CC4(COC4)C3)cc12` [Example 250], the IC50 [1] was under 0.1 µM and the EC50 [2] was 0.1 to 1 µM.
With `Cc1ccc(-c2noc([C@H]3C[C@@H](OC(F)(F)F)C3)n2)cc1NC(=O)c1cnn2ccc(N3CC4(CCN(CC(F)F)C4)C3)cc12` [Example 251] the IC50 [1] was 0.1 to 1 µM and the EC50 [2] was 0.1 to 1 µM.
Work on `Cc1ccc(-c2noc([C@H]3C[C@@H](OC(F)(F)F)C3)n2)cc1NC(=O)c1cnn2ccc(N3CC4(CCN(CC(F)(F)F)C4)C3)cc12` [Example 252] yielded an IC50 [1] of 0.1 to 1 µM and an EC50 [2] of 0.1 to 1 µM.
`Cc1ccc(-c2noc([C@H]3C[C@@H](OC(F)F)C3)n2)cc1NC(=O)c1cnn2ccc(N3CC4(CCN(CC(F)(F)F)C4)C3)cc12` [Example 253] gave an IC50 [1] of 0.1 to 1 µM and an EC50 [2] of 0.1 to 1 µM.
`Cc1ccc(-c2noc([C@H]3C[C@@H](OC(F)F)C3(C)C)n2)cc1NC(=O)c1cnn2ccc(N3CC4(CCN(CC(F)(F)F)C4)C3)cc12` [Example 254] was tested, and the IC50 [1] was 0.1 to 1 µM and the EC50 [2] was 0.1 to 1 µM.
`Cc1ccc(-c2noc([C@H]3C[C@@H](OC(F)F)C3(C)C)n2)cc1NC(=O)c1cnn2ccc(N3CC4(CCN(CC(F)F)C4)C3)cc12` [Example 255] was tested, and the IC50 [1] was under 0.1 µM and the EC50 [2] was 0.1 to 1 µM.
In the case of `Cc1ccc(-c2noc([C@H]3C[C@@H](OC(F)(F)F)C3)n2)cc1NC(=O)c1cnn2ccc(N3CC4CC(C3)O4)cc12` [Example 256], the IC50 [1] is reported as under 0.1 µM and the EC50 [2] is reported as under 0.1 µM.
Work on `Cc1ccc(-c2noc([C@H]3C[C@@H](OC(F)F)C3)n2)cc1NC(=O)c1cnn2ccc(N3CC4CC(C3)O4)cc12` [Example 257] yielded an IC50 [1] of under 0.1 µM and an EC50 [2] of 0.1 to 1 µM.
Compound `Cc1ccc(-c2noc([C@H]3C[C@@H](OC(F)(F)F)C3)n2)cc1NC(=O)c1cnn2ccc(N3CC4(CN(C(=O)OC(C)(C)C)C4)C3)cc12` [Example 258] has an IC50 [1] of 0.1 to 1 µM and an EC50 [2] of 0.1 to 1 µM.
`Cc1ccc(-c2noc([C@H]3C[C@@H](OC(F)(F)F)C3)n2)cc1NC(=O)c1cnn2ccc(N3CC4(CN(CC(F)F)C4)C3)cc12` [Example 259] gave an IC50 [1] of under 0.1 µM and an EC50 [2] of under 0.1 µM.
